The text below walks through data of ChEMBL document CHEMBL1201862, “PubChem BioAssay data set” (2004).

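Protocol summary: plate cells (96-well), add compound at 5 concentrations, incubate 48 h, interpolate endpoints linearly. Abbreviation: GI50, concentration required for 50% inhibition of growth.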 Activity calls are given as the source filed them. Rule as the data show it: active = GI50 up to about 1.1 µM and inactive = higher.

What all share (assay): NCI-60 cell line screen, 48 h
Experiment [1] deals with HOP-92.
For experiment [2], the system named is SF-295.
The test system of experiment [3] is LXFL 529.
In experiment [4] the test system is UACC-257.
Experiment [5] has as its system SK-OV-3.
Experiment [6] concerns OVCAR-3.
Experiment [7] concerns Malme-3M.
For experiment [8], the system named is SR.
Experiment [9] concerns M14.
The test system of experiment [10] is EKVX.
Experiment [11] deals with SNB-19.
For experiment [12], the system named is SK-MEL-2.
Experiment [13] deals with LOX IMVI.
In experiment [14] the test system is NCI-H522.
Experiment [15] concerns HCT-116.
For experiment [16], the system named is CCRF-CEM.
Experiment [17] deals with NCI/ADR-RES.

Consider `O=c1[nH]c(S)nc2c1sc(=S)n2-c1ccccc1`, for which the GI50 in experiment [1] is 55.3 µM (inactive); in experiment [2], > 100 µM (inactive); in [3], > 100 µM (inactive); in experiment [4], > 100 µM (inactive); in [5] it was > 100 µM (inactive); in experiment [6], > 100 µM (inactive). For the same molecule, the GI50 in experiment [7], in [8], in experiment [9], in experiment [10], in experiment [11] and in experiment [12] was > 100 µM (inactive) in each case. Besides, the GI50 in [13], in experiment [14], in [15] and in [16] was > 100 µM (inactive) throughout.
With `O=C1C(c2ccccc2)=[N+]([O-])c2ccc(Cl)cc21`, the GI50 in experiment [1] was 0.0256 µM (active); in experiment [2], 34.1 µM (inactive); in experiment [3], 13.6 µM (inactive); in experiment [4], 19.3 µM (inactive); in experiment [5], > 100 µM (inactive); in experiment [6] it was 23.3 µM (inactive). In addition, the GI50 in experiment [7] was 26.2 µM (inactive); in [8], 34.7 µM (inactive); in [9], 27.8 µM (inactive); in experiment [10], 16.9 µM (inactive); in experiment [11], 34.5 µM (inactive); in [12] it was > 100 µM (inactive). For the same molecule, the GI50 was 18.4 µM (inactive) in [13], 15.3 µM (inactive) in experiment [14], 15.8 µM (inactive) in experiment [15] and 25.9 µM (inactive) in experiment [16].
Take `Cc1ccccc1/C=C/c1csnn1`: the GI50 in experiment [1], in experiment [2], in [3], in experiment [4], in experiment [5] and in [6] was > 100 µM (inactive) each time. The GI50 in [7], in [8], in experiment [9], in experiment [10], in experiment [11] and in experiment [12] was > 100 µM (inactive) in each case. The GI50 is > 58.7 µM (inactive) in experiment [13], > 100 µM (inactive) in [14], > 44 µM (inactive) in experiment [15] and 60.3 µM (inactive) in [16].
Regarding `C1CN(P2(N3CC3)=NP(N3CC3)(N3CC3)=NP(N3CC3)(N3CC3)=N2)CCO1` (stereo unspecified) [FOTRETAMINE], the GI50 in experiment [1] was > 100 µM (inactive); in [2] it was 54.7 µM (inactive); in [3], > 100 µM (inactive); in experiment [4], 83.8 µM (inactive); in [5] it was > 100 µM (inactive); in experiment [6], > 100 µM (inactive). Moreover, the GI50 in [7] was > 100 µM (inactive); in experiment [8], 2.47 µM (inactive); in experiment [9] it was > 100 µM (inactive); in experiment [10], > 100 µM (inactive); in experiment [11], > 100 µM (inactive); in experiment [12], > 100 µM (inactive). Besides, the GI50 was 72.4 µM (inactive) in [13], > 100 µM (inactive) in experiment [14], > 100 µM (inactive) in experiment [15] and 23 µM (inactive) in experiment [16].
Take `Cc1cc2nc(O)c(CCC(=O)O)nc2cc1C`: the GI50 in [1], in experiment [2], in experiment [3], in [4], in experiment [5] and in [6] was > 100 µM (inactive) in each case. The GI50 in experiment [7] was > 100 µM (inactive); in experiment [8], 43.4 µM (inactive); in [9] it was > 100 µM (inactive); in [10], > 100 µM (inactive); in [11], > 100 µM (inactive); in experiment [12], > 100 µM (inactive). For the same molecule, the GI50 is > 100 µM (inactive) in experiment [13], 83.8 µM (inactive) in experiment [14], > 100 µM (inactive) in [15] and > 100 µM (inactive) in experiment [16].
For `CN(C)CC1CC/C(=C\c2ccc(Cl)cc2)C1=O` (stereo unspecified), the GI50 in experiment [1] is 7.73 µM (inactive); in [2], 17.2 µM (inactive); in experiment [3], 1.99 µM (inactive); in experiment [4], 8.17 µM (inactive); in experiment [5], 15.7 µM (inactive); in experiment [6], 7.35 µM (inactive). Further, the GI50 in [7] is 7.11 µM (inactive); in experiment [9], 10.1 µM (inactive); in experiment [10] it was 12.7 µM (inactive); in experiment [11], 15.8 µM (inactive); in experiment [12], 12 µM (inactive); in experiment [13], 2.4 µM (inactive). The GI50 in experiment [17] is 3.24 µM (inactive); in experiment [14], 3.48 µM (inactive); in experiment [15], 3.31 µM (inactive); in [16] it was 0.611 µM (active).
